# Entries after “also recorded” stand apart in the source; their conditions may differ.
# How the values were obtained:
# [1] = system: Blon_0881 (glucosamine-6-phosphate isomerase); assay: qRT-PCR gene expression in B. infantis EVC001, relative to Blon_0393, 2^-ΔΔCt; format: cell-based, Bifidobacterium longum subsp. infantis EVC001; settings: 10 g/L activator + 10 g/L glucose, 16 hours; control 20 g/L glucose = 1
# Procedure: (§1) In some embodiments, gene activation relates to Blon_0881 and Blon_2343 and their expression is greater than 1; that is, when the delta delta cycle threshold (2^−ΔΔ^Ct) is greater than 1, 2^−ΔΔ^Ct is calculated using Blon_0393, or another constitutively expressed gene as a reference. The result (activation) is the fold change (2^−ΔΔ^Ct>1) of gene expression, determined based on the 2^−ΔΔ^Ct method. (Livak K and Schmittgen T. (2001). Analysis of relative gene expression data using qRT-PCR and the 2^−ΔΔ^Ct Method. Methods: 25: 402-8). In other embodiments, other genes from Table 1 are used in addition to Blon_0881 and Blon_2343.
# (§2) B. infantis EVC001 (Bifidobacterium longum subsp. infantis EVC001 deposited under ATCC Accession No. PTA-125180) was grown under 3 different experimental conditions for 16 hours. The carbon source was added to the initial culture media in the following amounts: 1) 20 g/L glucose; 2) 10 g/L N-acetyl-lactosamine and 10 g/L glucose; and 3) 10 g/L NAG and 10 g/L glucose. The cells were harvested and RNA was extracted to look specifically at gene expression of Blon_0881 and Blon_2343 by qRT-PCR relative to Blon_0393 and expressed as 2^−ΔΔ^Ct. Activation is determined by comparing against the control (glucose). A result greater than 1 is considered activated N-acetyl-lactosamine is an activator of B. infantis EVC001.
# [2] = system: Blon_2343 (carbohydrate ABC transporter inner membrane protein); assay: as above; format: cell-based, Bifidobacterium longum subsp. infantis EVC001; settings: 10 g/L activator + 10 g/L glucose, 16 hours; control 20 g/L glucose = 1
# Procedure: as §1, §2
# [3] = system: B. infantis EVC001; assay: Activation of B. infantis EVC001 judged from Blon_0881 and Blon_2343 expression against glucose control; format: cell-based, Bifidobacterium longum subsp. infantis EVC001; settings: 10 g/L activator + 10 g/L glucose, 16 hours
# Procedure: as §1, §2
# [4] = system: fucosidase activity in B. infantis; assay: Fucosidase activity of dried B. infantis final product (colorimetric nitrophenol release, absorbance at 450 nm); format: cell-based, Bifidobacterium infantis
# Procedure: FIG. 1. A comparison of fucosidase activity between a final product of B. infantis grown on N-acetylglucosamine (NAG) and a final product of B. infantis grown on glucose/lactose. B. infantis grown on 2.5% w/v NAG is compared to B. infantis grown on glucose/lactose. The absorbance due to the colorometric change resulting from fucosidase activity in the supernatant is measured using a spectrophotometer at 450 nm. […] A fermentation media was made that contained NAG as 100% of the carbon source. This represented 2% of the total media composition (wt/vol). The media also contained sources of nitrogen, minerals, reducing agents and was autoclaved prior to addition of a B. infantis inoculum. The fermentation was carried out under anaerobic conditions for up to 72 hours, until the fermentation reached the stationary phase. The cells were separated from the spent media and concentrated. A cryoprotectant was mixed with the cells to stabilize before freeze-drying. Once dried, the formulation was analyzed for fucosidase activity compared to a dried formulation that had been grown on glucose/lactose. […] The colorimetric difference was confirmed using a spectrophotometer (FIG. 1).
# [5] = system: Blon_2343 and Blon_0881 in B. infantis; assay: qRT-PCR of Blon_2343 and Blon_0881 in B. infantis grown on NAG/glucose, normalized to Blon_0393; format: cell-based; settings: all tested concentrations of NAG (5-20 g/L with glucose to 20 g/L), harvested after 6 or 12 hours; FIG. 2
# Procedure: FIG. 2. Average relative fold change in gene expression of the genes Blon_2343 and Blon_0881 in B. infantis coding a carbohydrate ABC transporter inner membrane protein and a glucosamine-6-phosphate isomerase or NagB, respectively. Different concentrations of N-acetylglucosamine (NAG) were added to the culture media used to ferment B. infantis. The cells were harvested after 6 hours (A) or 12 hours of growth (B) and RNA was isolated for quantitative reverse transcription PCR (qRT-PCR). Activation was assessed using specific primers for Blon_2343 and Blon_0881 and normalized to a housekeeping gene (Blon_0393). The dashed horizontal line represents no change in expression. […] Cells grown in glucose alone (0 g/L NAG) show no activation.
# In some embodiments, gene activation relates to Blon_0881 and Blon_2343 and their expression is greater than 1; that is, when the delta delta cycle threshold (2^−ΔΔ^Ct) is greater than 1, 2^−ΔΔ^Ct is calculated using Blon_0393, or another constitutively expressed gene as a reference. The result (activation) is the fold change (2^−ΔΔ^Ct>1) of gene expression, determined based on the 2^−ΔΔ^Ct method. […]
# A series of fermentations were conducted where B. infantis was grown on various concentrations of NAG and glucose shown in Table 5. The cells were grown for a determined period of time (i.e 6 and 12 hours) and spun down. […]
# [6] = system: N-acetylglucosamine-6-phosphate deacetylase gene in L. plantarum; assay: qRT-PCR of N-acetylglucosamine-6-phosphate deacetylase in Lactobacillus plantarum, normalized to rpoB; format: cell-based; settings: for activation of L. plantarum (fold change of N-acetylglucosamine-6-phosphate deacetylase expression): FIG. 3
# Description: FIG. 3. Average relative fold change in the expression of the genes coding for N-acetylglucosamine-6-phosphate deacetylase under different concentrations of N-acetylglucosamine (NAG) added to the culture media for Lactobacillus plantarum. Culture media with different concentrations of NAG (3, 12.5 and 20 g/L) were used to ferment Lactobacillus plantarum. The cells were harvested and RNA was isolated for qRT-PCR. Using specific primers for N-acetylglucosamine-6-phosphate deacetylase, activation was assessed using normalization to a housekeeping gene (rpoB) found in L. plantarum. […] Three different fermentation media compositions were made that contained: 1) 100% NAG (25 g/L); 2) 50% NAG (12.5 g/L) with 50% Lactose (12.5 g/L); and 3) 12.5% NAG (3 g/L) with 87.5% lactose (22 g/L). This represented about 2% of the total media composition (wt/vol). The media also contained sources of nitrogen, minerals, reducing agents and was autoclaved prior to addition of L. plantarum inoculum. The fermentation was carried out under anaerobic conditions for 24 hours until the cells reached the stationary phase. The cells were harvested and RNA extracted (Sambrook, Joseph. & Russell, David W. & Cold Spring Harbor Laboratory. (2012). Molecular cloning: a laboratory manual. Cold Spring Harbor, N.Y: Cold Spring Harbor Laboratory). Specific primers for Lactobacillus were used for the following gene N-acetylglucosamine-6-phosphate deacetylase (activation gene) using normalization to a housekeeping gene (rpoB) found in L. plantarum.
SMILES,Mean 2^-ΔΔCt BLON_0881 [1],Mean 2^-ΔΔCt BLON_2343 [2],Interpretation (activation; result greater than 1 is considered activated) [3],"fucosidase activity (absorbance at 450 nm) ([4]; B. infantis final product grown on 2.5% w/v NAG, compared to cells grown on glucose/lactose, FIG. 1)","release of nitrophenol from aryl-substituted glycoside via fucosidases ([4]; dried B. infantis grown on NAG as 100% of carbon source, 2% wt/vol of media, up to 72 hours, compared to glucose/lactose)","relative fold change in gene expression of Blon_2343 and Blon_0881 (2^ΔΔCt), activation [5]","activation of L. plantarum (fold change of N-acetylglucosamine-6-phosphate deacetylase expression) ([6]; 3 g/L NAG (12.5%) with 22 g/L lactose, 24 hours)","activation of L. plantarum (fold change of N-acetylglucosamine-6-phosphate deacetylase expression) ([6]; 12.5 g/L NAG (50%) with 12.5 g/L lactose, 24 hours)",activation of L. plantarum (fold change of N-acetylglucosamine-6-phosphate deacetylase expression) ([6]; 20 g/L NAG in culture media),"activation of L. plantarum (N-acetylglucosamine-6-phosphate deacetylase expression) ([6]; 100% NAG (25 g/L) as carbon source, 24 hours)"
CC(=O)N[C@H]1C(O)O[C@H](CO)[C@@H](O[C@@H]2O[C@H](CO)[C@H](O)[C@H](O)[C@H]2O)[C@@H]1O (stereo partly shown) [N-acetyl-lactosamine],10.50,6.94,activator; also recorded: Activated,–,–,–,–,–,–,–
"CC(=O)N[C@H]1C(O)O[C@H](CO)[C@@H](O)[C@@H]1O (stereo partly shown) [NAG, N-acetylglucosamine]",3.41,2.10,Activated,had fucosidase activity,release nitrophenol,> 1,did not,activated; also recorded: activation,activated,activation

# Source: patent publication US20200345055A1, “ACTIVATION OF CONDITIONALLY-EXPRESSED OLIGOSACCHARIDE PATHWAYS DURING FERMENTATION OF PROBIOTIC STRAINS” (EVOLVE BIOSYSTEMS, INC., priority 2018, published 2020)
